Measurements: patent US20220411419A1, “SMALL MOLECULE MODULATORS OF MHC-I” (RetroVirox, Inc., priority 2018, published 2022)

How the values were obtained:
[1] = tested on: downmodulation of MHC-I molecules expressed on the surface of HIV infected SupT1 cells; assay: cells; settings: for EC50: Human immunodeficiency virus 1, SUP-T1, read-out: EC50 for inhibition of MHC-I downmodulation utilizing the R1 parameter; for activity at 100 µM: Human immunodeficiency virus 1, SUP-T1, read-out: R1 @ 100 μM (R1 value for MHC-I downmodulation as % of the vehicle control)
[2] = in vitro; settings: human, uninfected SupT1 cells

SMILES | EC50 [1] [µM] | CC50 at 48 h [2] [µM] | activity at 100 µM [1] [%] | CC50 [2] [µM]
Cc1nc(NC(=O)COc2cccc3c2OC(C)(C)C3)ccc1Br [Compound 72, N-(5-Bromo-6-methylpyridin-2-yl)-2-((2,2-dimethyl-2,3-dihydrobenzofuran-7-yl)oxy)acetamide] | 1.4 | > 100 | – | –
Cc1ccc(NC(=O)COc2cccc3c2OC(C)(C)C3)nc1C [Compound 73, 2-((2,2-Dimethyl-2,3-dihydrobenzofuran-7-yl)oxy)-N-(5,6-dimethylpyridin-2-yl)acetamide] | 0.21 | > 100 | – | –
C=Cc1ccc(NC(=O)COc2cccc3c2OC(C)(C)C3)nc1C [Compound 74, 2-((2,2-Dimethyl-2,3-dihydrobenzofuran-7-yl)oxy)-N-(6-methyl-5-vinylpyridin-2-yl)acetamide] | 1.3 | > 125 | – | –
CCc1ccc(NC(=O)COc2cccc3c2OC(C)(C)C3)nc1C [Compound 75, 2-((2,2-Dimethyl-2,3-dihydrobenzofuran-7-yl)oxy)-N-(5-ethyl-6-methylpyridin-2-yl)acetamide] | 0.21 | 120 | – | –
Cc1cc(NC(=O)COc2cccc3c2OC(C)(C)C3)ncc1Br [Compound 76, N-(5-Bromo-4-methylpyridin-2-yl)-2-((2,2-dimethyl-2,3-dihydrobenzofuran-7-yl)oxy)acetamide] | 23 | > 125 | – | –
Cc1cnc(NC(=O)COc2cccc3c2OC(C)(C)C3)cc1C [Compound 77, 2-((2,2-Dimethyl-2,3-dihydrobenzofuran-7-yl)oxy)-N-(4,5-dimethylpyridin-2-yl)acetamide] | > 25 | > 125 | 21 | > 125
CN(C(=O)COc1cccc2c1OC(C)(C)C2)c1ccc(Br)cn1 [Compound 78, N-(5-Bromopyridin-2-yl)-2-((2,2-dimethyl-2,3-dihydrobenzofuran-7-yl)oxy)-N-methylacetamide] | 17 | > 125 | – | –
C=Cc1ccc(N(C)C(=O)COc2cccc3c2OC(C)(C)C3)nc1 [Compound 79, 2-((2,2-Dimethyl-2,3-dihydrobenzofuran-7-yl)oxy)-N-methyl-N-(5-vinylpyridin-2-yl)acetamide] | 5 | > 125 | – | –
CCc1ccc(N(C)C(=O)COc2cccc3c2OC(C)(C)C3)nc1 [Compound 80, 2-((2,2-Dimethyl-2,3-dihydrobenzofuran-7-yl)oxy)-N-(5-ethylpyridin-2-yl)-N-methylacetamide] | 4.6 | > 125 | – | –
CN(C(=O)COc1cccc2c1OC(C)(C)C2)c1ccc(Cl)nn1 [Compound 81, N-(6-Chloropyridazin-3-yl)-2-((2,2-dimethyl-2,3-dihydrobenzofuran-7-yl)oxy)-N-methylacetamide] | > 25 | > 125 | 67 | > 125
C=Cc1ccc(N(C)C(=O)COc2cccc3c2OC(C)(C)C3)nn1 [Compound 82, 2-((2,2-Dimethyl-2,3-dihydrobenzofuran-7-yl)oxy)-N-methyl-N-(6-vinylpyridazin-3-yl)acetamide] | 5.9 | > 125 | – | –
CCc1ccc(N(C)C(=O)COc2cccc3c2OC(C)(C)C3)nn1 [Compound 83, 2-((2,2-Dimethyl-2,3-dihydrobenzofuran-7-yl)oxy)-N-(6-ethylpyridazin-3-yl)-N-methylacetamide] | 13 | > 125 | – | –
C=Cc1ccc(NC(=O)COc2cccc3c2OC(C)(C)C3)nn1 [Compound 84, 2-((2,2-Dimethyl-2,3-dihydrobenzofuran-7-yl)oxy)-N-(6-vinylpyridazin-3-yl)acetamide] | 0.89 | > 100 | – | –
CCc1ccc(NC(=O)COc2cccc3c2OC(C)(C)C3)nn1 [Compound 85, 2-((2,2-Dimethyl-2,3-dihydrobenzofuran-7-yl)oxy)-N-(6-ethylpyridazin-3-yl)acetamide] | 0.38 | > 100 | – | –
C=C(C)c1ccc(NC(=O)COc2cccc3c2OC(C)(C)C3)nn1 [Compound 86, 2-((2,2-Dimethyl-2,3-dihydrobenzofuran-7-yl)oxy)-N-(6-(prop-1-en-2-yl)pyridazin-3-yl)acetamide] | 1.1 | > 100 | – | –
CC(C)c1ccc(NC(=O)COc2cccc3c2OC(C)(C)C3)nn1 [Compound 87, 2-((2,2-Dimethyl-2,3-dihydrobenzofuran-7-yl)oxy)-N-(6-isopropylpyridazin-3-yl)acetamide] | 0.58 | > 100 | – | –
Cc1ccc(N(C(=O)COc2cccc3c2OC(C)(C)C3)c2ccc(C)nn2)cc1 [Compound 88, 2-((2,2-Dimethyl-2,3-dihydrobenzofuran-7-yl)oxy)-N-(6-methylpyridazin-3-yl)-N-(p-tolyl)acetamide] | 3.25 | > 100 | – | –

SMILES | EC50 [1] [µM] | CC50 at 48 h [2] [µM] | activity at 100 µM [1] [%] | CC50 [2] [µM]
Cc1ccc(N(C(=O)COc2cccc3c2OC(C)(C)C3)c2ccccc2)nn1 [Compound 89, 2-((2,2-Dimethyl-2,3-dihydrobenzofuran-7-yl)oxy)-N-(6-methylpyridazin-3-yl)-N-phenylacetamide] | 0.38 | > 100 | – | –
Cc1csc(N(C(=O)COc2cccc3c2OC(C)(C)C3)c2cnccn2)n1 [Compound 90] | > 25 | > 100 | 31 | > 100
Cc1csc(N(C(=O)COc2cccc3c2OC(C)(C)C3)c2ccccn2)n1 [Compound 91, 2-((2,2-Dimethyl-2,3-dihydrobenzofuran-7-yl)oxy)-N-(4-methylthiazol-2-yl)-N-(pyridin-2-yl)acetamide] | 0.89 | > 100 | – | –
Cc1ccc(N(C(=O)COc2cccc3c2OC(C)(C)C3)c2nc3c(s2)CCCC3)nn1 [Compound 92, 2-((2,2-Dimethyl-2,3-dihydrobenzofuran-7-yl)oxy)-N-(6-methylpyridazin-3-yl)-N-(4,5,6,7-tetrahydrobenzo[d]thiazol-2-yl)acetamide] | 25 | > 100 | – | –
Cc1ccc(N(C(=O)COc2cccc3c2OC(C)(C)C3)c2nc(C)cs2)nn1 [Compound 93, 2-((2,2-Dimethyl-2,3-dihydrobenzofuran-7-yl)oxy)-N-(6-methylpyridazin-3-yl)-N-(4-methylthiazol-2-yl)acetamide] | > 25 | > 100 | 65 | > 100
CC1(C)Cc2cccc(OCC(=O)N(c3ccccc3)c3nc4c(s3)CCCC4)c2O1 [Compound 94, 2-((2,2-Dimethyl-2,3-dihydrobenzofuran-7-yl)oxy)-N-phenyl-N-(4,5,6,7-tetrahydrobenzo[d]thiazol-2-yl)acetamide] | 0.0015 | > 125 | – | –
Cc1csc(N(C(=O)COc2cccc3c2OC(C)(C)C3)c2ccncc2)n1 [Compound 95, 2-((2,2-Dimethyl-2,3-dihydrobenzofuran-7-yl)oxy)-N-(4-methylthiazol-2-yl)-N-(pyridin-4-yl)acetamide] | 0.95 | > 125 | – | –
Cc1csc(N(C(=O)COc2cccc3c2OC(C)(C)C3)c2ccncn2)n1 [Compound 96, 2-((2,2-Dimethyl-2,3-dihydrobenzofuran-7-yl)oxy)-N-(4-methylthiazol-2-yl)-N-(pyrimidin-4-yl)acetamide] | > 25 | > 125 | 32 | > 125
Cc1csc(N(C(=O)COc2cccc3c2OC(C)(C)C3)c2cncnc2)n1 [Compound 97, 2-((2,2-Dimethyl-2,3-dihydrobenzofuran-7-yl)oxy)-N-(4-methylthiazol-2-yl)-N-(pyrimidin-5-yl)acetamide] | > 25 | > 125 | 5.4 | > 125
CC1(C)Cc2cccc(OCC(=O)N(c3ccccc3)c3nc4ccccc4s3)c2O1 [Compound 98, N-(Benzo[d]thiazol-2-yl)-2-((2,2-dimethyl-2,3-dihydrobenzofuran-7-yl)oxy)-N-phenylacetamide] | 29 | > 90 | – | –
COC(=O)CN(C(=O)COc1cccc2c1OC(C)(C)C2)c1nc2c(s1)CCCC2 [Compound 99, Methyl 2-(2-((2,2-dimethyl-2,3-dihydrobenzofuran-7-yl)oxy)-N-(4,5,6,7-tetrahydrobenzo[d]thiazol-2-yl)acetamido)acetate] | 22 | > 125 | – | –
CC1(C)Cc2cccc(OCC(=O)Nc3nc4c(-c5ccncc5)cccc4s3)c2O1 [Compound 101, 2-((2,2-dimethyl-2,3-dihydrobenzofuran-7-yl)oxy)-N-(4-(pyridin-4-yl)benzo[d]thiazol-2-yl)acetamide] | > 25 | > 100 | 40 | > 100
CC1(C)Cc2cccc(OCC(=O)Nc3nc4c(-c5ccc[nH]5)cccc4s3)c2O1 [Compound 102, N-(4-(1H-Pyrrol-2-yl)benzo[d]thiazol-2-yl)-2-((2,2-dimethyl-2,3-dihydrobenzofuran-7-yl)oxy)acetamide] | > 25 | > 100 | 20 | > 100
Cc1ccc(NC(=O)CCc2cccc3c2OC(C)(C)C3)nn1 [Compound 103, 3-(2,2-Dimethyl-2,3-dihydrobenzofuran-7-yl)-N-(6-methylpyridazin-3-yl) propanamide] | 1.48 | > 100 | – | –
CC1(C)Cc2cccc(CCC(=O)N(Cc3ccccn3)c3nc4c(s3)CCCC4)c2O1 [Compound 104, 3-(2,2-Dimethyl-2,3-dihydrobenzofuran-7-yl)-N-(pyridin-2-ylmethyl)-N-(4,5,6,7-tetrahydrobenzo[d]thiazol-2-yl)propanamide] | 1.1 | > 125 | – | –
CC1(C)Cc2cccc(CCC(=O)Nc3nc4c(s3)CCCC4)c2O1 [Compound 105, 3-(2,2-Dimethyl-2,3-dihydrobenzofuran-7-yl)-N-(4,5,6,7-tetrahydrobenzo[d]thiazol-2-yl)propanamide] | 0.39 | > 125 | – | –
